38 compounds from patent US12331033B2, “Inhibitors of SARM1” (Disarm Therapeutics, Inc., priority 2020, dated 2025) can be followed below.

For the test, the target named is SARM1 (ARM-SAM-TIR) (Homo sapiens (Human), UniProt Q6SZW1). In words: ARM-SAM-TIR SARM1 IC50 assay (NADase activity, NAD+ cleavage, RapidFire MS). In kind it is biochemical. As to conditions: ARM-SAM-TIR lysate 5 μg/mL, 2 h pre-incubation, 5 μM NAD+, 2 hr room temperature. Put shortly: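 Lysate of NRK1-HEK293T cells transfected with full-length ARM-SAM-TIR SARM1 (5 μg/mL final) pre-incubated with compound (1% DMSO) 2 h at room temperature in Dulbecco's PBS. Reaction started with 5 μM NAD+, run 2 hr at room temperature, then stopped with TCA/acetonitrile. NAD+ and ADPR quantified by RapidFire MS.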
Chain of SARM1 (ARM-SAM-TIR) (Q6SZW1 other isoform, or with tags, fused parts or gaps): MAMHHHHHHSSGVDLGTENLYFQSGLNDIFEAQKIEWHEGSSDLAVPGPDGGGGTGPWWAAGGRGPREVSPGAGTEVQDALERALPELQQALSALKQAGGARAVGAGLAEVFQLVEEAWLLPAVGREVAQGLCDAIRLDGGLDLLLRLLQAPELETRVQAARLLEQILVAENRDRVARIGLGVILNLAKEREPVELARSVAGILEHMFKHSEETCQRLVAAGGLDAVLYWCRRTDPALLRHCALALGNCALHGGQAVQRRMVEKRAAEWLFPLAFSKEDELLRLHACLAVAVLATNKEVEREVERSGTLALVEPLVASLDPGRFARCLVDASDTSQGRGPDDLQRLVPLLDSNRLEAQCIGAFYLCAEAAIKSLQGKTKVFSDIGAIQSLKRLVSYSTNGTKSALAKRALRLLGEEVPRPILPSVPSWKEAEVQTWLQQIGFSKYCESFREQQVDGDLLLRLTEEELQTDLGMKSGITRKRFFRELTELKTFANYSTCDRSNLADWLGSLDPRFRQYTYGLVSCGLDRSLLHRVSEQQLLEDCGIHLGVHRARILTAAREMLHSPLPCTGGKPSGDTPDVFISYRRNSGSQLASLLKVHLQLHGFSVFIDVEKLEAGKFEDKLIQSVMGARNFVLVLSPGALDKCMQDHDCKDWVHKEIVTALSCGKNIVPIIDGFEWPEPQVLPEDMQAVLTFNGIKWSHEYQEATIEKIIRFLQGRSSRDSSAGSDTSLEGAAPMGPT
In the case of `CNC(=O)Cc1c(-c2ccncc2)n[nH]c1NC(=O)CCc1ccc(Cl)nc1` [Example 285], the IC50 is less than 5 µM.

`NC(=O)c1cnccc1-c1nnc(NC(=O)CCc2ccc(Cl)cc2)[nH]1` [Example 286] showed an IC50 of less than 5 µM.

`Cc1c(-c2ccncc2)nn(C)c1NC(=O)CCc1ccc(Cl)nc1` [Example 287]: the IC50 is less than 5 µM.

`Cc1c(-c2ccncc2)n[nH]c1N(C)C(=O)CCc1ccc(Cl)nc1` [Example 288] registered an IC50 of 5 to 15 µM.

`Cc1c(-c2ccncc2)n[nH]c1NC(=O)[C@H](O)Cc1ccc(Cl)cc1` [Example 289] returned an IC50 of less than 5 µM.

For the compound `Cc1c(-c2ccncc2)n[nH]c1NC(=O)[C@@H](O)Cc1ccc(Cl)cc1` [Example 290], the IC50 is less than 5 µM.

In turn, `Cc1c(-c2ccncc2)n[nH]c1NC(=O)CSc1ccc(Cl)cc1` [Example 292] came in with an IC50 of less than 5 µM.

In turn, `Cc1c(-c2ccncc2)n[nH]c1NC(=O)CS(=O)(=O)c1ccc(Cl)cc1` [Example 293] yielded an IC50 of less than 5 µM.

Compound `Nc1cnccc1-c1cc(NC(=O)CCc2ccc(Cl)nc2)[nH]n1` [Example 294] showed an IC50 of less than 5 µM.

`O=C(Cc1coc2cc(Cl)ccc12)Nc1nnc(-c2ccncc2)[nH]1` [Example 295]: the IC50 is less than 5 µM.

`O=C(Nc1nnc(-c2ccncc2)[nH]1)N1CCc2cc(Cl)ncc2C1` [Example 296] registered an IC50 of less than 5 µM.

`COCc1c(-c2ccncc2)n[nH]c1NC(=O)CCc1ccc(Cl)nc1` [Example 297]: the IC50 was less than 5 µM.

For `O=C(CCc1ccc(Cl)cc1)Nc1cc(-c2ccncc2C2CC2)n[nH]1` [Example 298], the IC50 was less than 5 µM.

Turning to `O=C(CCc1ccc(Cl)cc1)Nc1cc(-c2ccncc2-c2ccccc2)n[nH]1` [Example 299], the IC50 was less than 5 µM.

Compound `O=C(CCc1ccc(Cl)cc1)Nc1cc(-c2c(F)cncc2F)n[nH]1` [Example 300] registered an IC50 of less than 5 µM.

In turn, `CN(C)C(=O)Cc1c(-c2ccncc2)n[nH]c1NC(=O)CCc1ccc(Cl)cc1` [Example 301] registered an IC50 of less than 5 µM.

Take `NC(=O)Cc1c(-c2ccncc2)n[nH]c1NC(=O)CCc1ccc(Cl)cc1` [Example 302]: the IC50 was less than 5 µM.

In turn, `CC1(c2c(-c3ccncc3)n[nH]c2NC(=O)CCc2ccc(Cl)cc2)CC1` [Example 303] came in with an IC50 of less than 5 µM.

Take `N#Cc1c(-c2ccnnc2)n[nH]c1NC(=O)CCc1ccc(Cl)nc1` [Example 304]: the IC50 was less than 5 µM.

`Cc1ccc(CCC(=O)Nc2[nH]nc(-c3ccncc3)c2C)cn1` [Example 306] displayed an IC50 of less than 5 µM.

With `Cc1ccc(CCC(=O)Nc2[nH]nc(-c3ccncc3F)c2C)cn1` [Example 307], the half-inhibitory concentration (IC50) is less than 5 µM.

The compound `Cc1c(-c2ccncc2F)n[nH]c1NC(=O)CCc1ccc(Cl)s1` [Example 308] showed an IC50 of less than 5 µM.

Compound `NC(=O)Cc1c(-c2ccncc2)n[nH]c1NC(=O)CCc1ccc(Cl)nc1` [Example 309] yielded an IC50 of less than 5 µM.

In turn, `CC1(c2c(-c3ccncc3)n[nH]c2NC(=O)CCc2ccc(Cl)nc2)CC1` [Example 310] came in with an IC50 of less than 5 µM.

`CC1(c2c(-c3ccnnc3)n[nH]c2NC(=O)CCc2ccc(Cl)cc2)CC1` [Example 311] registered an IC50 of less than 5 µM.

As for `N#Cc1c(-c2ccnnc2)n[nH]c1NC(=O)CCc1ccc(Cl)cc1` [Example 312], the IC50 was less than 5 µM.

For the compound `Cc1c(-c2ccncc2F)n[nH]c1NC(=O)CCc1ccc(Cl)cc1` [Example 313], the IC50 is less than 5 µM.

The compound `Cc1c(-c2ccncc2F)n[nH]c1NC(=O)CCc1ccc(Cl)nc1` [Example 314] registered an IC50 of less than 5 µM.

`O=C(CCc1ccc(Cl)cc1)Nc1nnc(-c2c(F)cncc2F)[nH]1` [Example 315]: the IC50 was in the range of 5 to 15 µM.

`CN(C)C(=O)Cc1c(-c2ccncc2)n[nH]c1NC(=O)CCc1ccc(Cl)nc1` [Example 316]: the IC50 is less than 5 µM.

For `Cc1c(-c2ccncc2)n[nH]c1NC(CCc1ccc(Cl)cc1)C(F)(F)F` (centres unmarked) [Example 317], the IC50 fell in the range of 5 to 15 µM.

`Cc1c(-c2ccncc2F)n[nH]c1NC(=O)[C@H]1C[C@H](c2ccc(Cl)cc2)C1` [Example 318] displayed an IC50 of less than 5 µM.

In turn, `Cc1c(-c2ccncc2F)n[nH]c1NC(=O)CCc1ccc(Cl)c(F)c1` [Example 320] had an IC50 of less than 5 µM.

Consider `CC1(c2c(-c3ccnnc3)n[nH]c2NC(=O)CCc2ccc(Cl)nc2)CC1` [Example 321], for which the IC50 is less than 5 µM.

`Cc1cnccc1-c1n[nH]c(NC(=O)CCc2ccc(Cl)nc2)c1C` [Example 322]: the IC50 is less than 5 µM.

As for `Cc1c(-c2ccncc2)n[nH]c1NC(=O)C1Cc2ccccc2CO1` (centres unmarked) [Example 323], the IC50 is 5 to 15 µM.

For `O=C(CCc1ccc(Cl)cc1)Nc1cc(-c2c(F)cncc2Br)n[nH]1` [Example 324], the IC50 lay within 5 to 15 µM.

As to `N#Cc1c(-c2ccncc2F)n[nH]c1NC(=O)CCc1ccc(Cl)cc1` [Example 325], the IC50 is less than 5 µM.
